According to US12331042B2, “Compounds suitable for the treatment and prophylaxis of muscle wasting and other conditions” (priority 2019, dated 2025):
Entries after “also recorded” stand apart in the source; their conditions may differ.

Experiments:
[1] = system: C2C12 myotubes (myocytes); test: Cytotoxicity, LDH release in cultured myotubes (myocytes); assay type: cell-based, Murine; details: increasing concentrations, 24 h
Procedure: (§1) Murine C2C12 myoblasts (CRL-1772, ATCC) were cultured in DMEM (Lonza; Basel, Switzerland) supplemented with 10% fetal calf serum (FCS; Gibco®Invitrogen, Carlsbad, CA). For induction of differentiation into myotubes, subconfluent cultures were switched to DMEM containing 2% horse serum (Sigma-Aldrich; Seelze, Germany). Myotubes were subsequently pre-treated for 2 h with increasing compound concentrations (0.1 to 10 μmol/L, dissolved in DMSO) or with an equal volume of DMSO before treatment for 24 h with 10 μmol/L dexamethasone (DEX; Sigma-Aldrich; Seelze, Germany). Myotube diameter was then evaluated by image analysis software (Analysis 3.0, Olympus Soft Imaging Solutions GmbH, Munster, Germany). To determine cytotoxicity of selected compounds, myoblasts or myotubes were incubated with increasing concentrations for 24 h. Subsequently, the concentration of lactate dehydrogenase (LDH) activity was quantified in the cell culture supernatant as a measure for cell destruction as described in Bellocci et al., Anal Biochem, 2008, 374, 48-55.

[2] = system: MuRF1, Nox 2, LC3 I/II, nitrotyrosine; test: Protein expression and nitrotyrosine in muscle tissue of B16F10 mice; assay type: in vivo; details: tumor+compound vs tumor
Procedure: Protein expression of MuRF1, Nox 2 and LC3 I/II in muscle tissue of B16F10 mice was determined as described above for the MCT and CHF mice. In addition, the level of the reactive oxygen species marker nitrotyrosine was determined.

MuRF1 E3 ligase activity = MuRF1 E3 ligase activity (Homo sapiens, UniProt Q969Q1); test: Inhibition of MuRF1 E3 ligase activity (ubiquitination, Western blot); assay type: biochemical; details: 20-100 μmol/L compound, 1 h at 37° C., based on ubiquitination patterns
Procedure: Compounds were then assessed for effects on MuRF1 E3 ligase activity directed to titin or to MuRF1 itself (self-ubiquitination) by mixing 75 nmol/L UBE1 (Boston Biochem), 1 μmol/L UbcH5c (Boston Biochem), 100 μmol/L Ubiquitin, 4 mmol/L ATP, 100 nmol/L Titin A168-170 with 20-100 μmol/L of respective compounds. Reactions were started by addition of 220 nmol/L MuRF1, followed by 1 h at 37° C., SDS PAGE and Western blot analysis with MuRF1 and titin specific antibodies. All reactions also included 5% DMSO.

[3] = system: Mrps5 (mitochondrial ribosomal protein 5); test: Proteomic analysis of diaphragm tissue, CHF mice; assay type: in vivo, Mus musculus; details: CHF mice with vs without compound feeding, P=0.02
Procedure: To analyze the molecular mechanisms underlying the observed physiological changes and benefits of MyoMed-946-treated mice suffering from CHF, comparative quantitative proteomic analysis as well as Western blot analysis of diaphragm tissue from sham, CHF, and CHF+MyoMed-946-treated mice were performed.
Mass spectrometry-based proteomic analysis was performed at the DZHK Core Facility, Bad Nauheim, Germany. Obtained MS raw data were processed by MaxQuant (1.6.0.1) using the Andromeda search engine and the Uniprot database for Mus musculus (as of 20 Apr. 2017). At a false discovery rate of 1% (both peptide and protein levels), >2600 protein groups were identified. The reductive dimethylation protocol employed (see Boersema et al., Nat Protoc, 2009, 4, 484-494) yielded pairwise relative comparative quantitation (ratios) between proteins from CHF+MyoMed-946, CHF, and sham conditions, which were statistically queried for significant differences using standard statistical tests. Several proteins were identified to be statistically different (e.g. TNNT3, Timm9, Ccdc5, Adi1, Ptges3, and Ndufa3).

Murine C2C12 myoblasts = test: Cytotoxicity, LDH release in cultured myoblasts; assay type: cell-based; details: increasing concentrations, 24 h
Procedure: as §1

[4] = system: monocrotaline (MCT)-treated C57BL/6 mice; test: Pulmonary hypertension mouse model, test series 2; assay type: in vivo; details: MCT+compound (0.1 weight-% in chow) vs MCT, 8 weeks
Procedure: The test series 2 were performed analogous to test series 1. Briefly, Three groups of mice were included in this study: 1) saline-treated mice (sham; n=10); 2) monocrotaline (MCT)-treated mice fed with normal chow (MCT; n=10); and 3) MCT-treated mice fed with MuRF1 inhibitor chow (MCT+compound; n=10 for each compound). 8 weeks old C57BL/6 mice were subcutaneously injected weekly with either MCT (600 mg/kg) or a matched volume of saline for 8 weeks. The MCT+compound group started receiving the inhibitor chow 1 week prior to the MCT injections, whereas the sham and MCT groups were fed an identical chow but without the addition of the selected compound. The compound concentration in the chow was 0.1 weight-%, resulting in a daily compound intake per mouse of about 3 mg. Body weight was recorded every week for each mouse. Mice were sacrificed after 8 weeks treatment. At sacrifice, examination and tissue analysis were performed as described in test series 1.

[5] = system: MuRF1 mRNA in C2C12 myotubes; test: MuRF1 mRNA in C2C12 myotubes treated with dexamethasone (RT-PCR); assay type: cell-based, Murine; details: pre-treatment at 0.1 μmol/L and 10 μmol/L, then 24 h dexamethasone 10 μmol/L
Procedure: as §1
After the incubation period, Total RNA was isolated from C2C12 cells and reverse transcribed into cDNA using random hexamers and Sensiscript reverse transcriptase (Qiagen, Hilden, Germany). An aliquot of the cDNA was used for quantitative RT-PCR, applying the Light Cycler system (Roche Diagnostics, Mannheim, Germany). […]

Chain of MuRF1 E3 ligase activity (Q969Q1 whole entry): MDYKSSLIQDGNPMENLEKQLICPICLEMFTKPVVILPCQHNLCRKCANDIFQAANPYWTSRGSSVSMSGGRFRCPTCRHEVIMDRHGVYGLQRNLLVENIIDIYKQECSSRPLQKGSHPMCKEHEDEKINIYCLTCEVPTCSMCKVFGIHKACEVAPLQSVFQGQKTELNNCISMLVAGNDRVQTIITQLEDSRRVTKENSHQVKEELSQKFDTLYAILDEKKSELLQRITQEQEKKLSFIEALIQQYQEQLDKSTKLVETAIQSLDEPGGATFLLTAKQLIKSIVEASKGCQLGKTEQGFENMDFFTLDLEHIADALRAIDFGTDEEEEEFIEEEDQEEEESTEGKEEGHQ

Question: Which results are given for `Cc1cc(=O)oc2cc(OCc3ccc(C(=O)OCC(=O)NC(=O)NCc4ccco4)cc3)ccc12` [MyoMed-946, [2-(2-furylmethylcarbamoylamino)-2-oxo-ethyl] 4-[(4-methyl-2-oxo-chromen-7-yl)oxymethyl]benzoate]?
Answer: toxicity (LDH release) [1]: low toxicity; downregulation of expression levels of LC3 I/II [2]: attenuated; also recorded: not observed; expression of Nox 2 [2]: attenuated; also recorded: significantly reduced; tissue level of nitrotyrosine [2]: attenuated; also recorded: significantly reduced; up-regulation of MuRF1 expression [2]: attenuated; also recorded: prevented; inhibition of MuRF1 E3 ligase activity (MuRF1 E3 ligase activity): significantly inhibit MuRF1 E3 ligase activity; Mrps5 protein level (proteomics) [3]: significantly up-regulated; toxicity (LDH release) (Murine C2C12 myoblasts): low toxicity; right ventricle hypertrophy [4]: attenuated; also recorded: attenuate the development of right ventricle hypertrophy; expression of MuRF1 at the mRNA level [5]: reduced MuRF1 mRNA levels; also recorded: prevented
